According to ChEMBL document CHEMBL1156829 (Proc Natl Acad Sci U S A, 2008):

Tests used:
[1] = NOVARTIS: Cytotoxicity against human hepatocellular carcinoma cell line (Huh7); type: toxicity, cell-based, Huh-7; conditions: Huh7 cells (hepatocellular carcinoma cell line)
Plasmodium falciparum [2] = test: NOVARTIS: Inhibition of Plasmodium falciparum 3D7 (drug-susceptible) proliferation in erythrocyte-based infection assay; type: functional, organism-based; conditions: Plasmodium falciparum, 3D7
Plasmodium falciparum [3] = test: NOVARTIS: Inhibition of Plasmodium falciparum W2 (drug-resistant) proliferation in erythrocyte-based infection assay; type: functional, organism-based; conditions: Plasmodium falciparum, W2; read-out: EC50

SMILES | CC50 [1] [nM] | EC50 (Plasmodium falciparum [2]) [nM] | EC50 (Plasmodium falciparum [3]) [nM]
COc1ccc(OC)c(/C=C/C(=O)Nc2ccc3nc(N4CCN(C)CC4)cc(C)c3c2)c1 | > 10000 | > 1250 | > 873
CCc1ccc2c(c1)C1(NN=C(c3ccc(C)cc3)S1)C(=O)N2 (stereo not given) | 23800 | 1490 | 2100
CCN(CC)C(CN1CCN(CC(C)C(=O)c2ccc(O)cc2)CC1)c1ccc(F)cc1 (stereo not given) | 49000 | 1950 | 4310
CCc1ccc(-n2c(C(CC)N(CCc3ccc(OC)c(OC)c3)C(=O)C(CC)c3ccccc3)nc3ccccc3c2=O)cc1 (stereo not given) | > 10000 | > 1250 | > 867
COc1ccc(CCn2c(SCC(=O)N3CCN(c4ccccc4OC)CC3)nc3ccccc3c2=O)cc1OC | > 10000 | > 1250 | > 864
NCCCCCCNC(=S)Nc1ccccc1 | > 10000 | > 1410 | > 859
COc1cc(C=NNC(=O)Cc2nnc(N)s2)ccc1O | > 12700 | > 1250 | > 1120
CC1CCCCN1CCCNc1ncc(C(=O)NCc2ccccc2)c(NCCc2ccccc2)n1 (stereo not given) | > 10000 | 247 | > 878
Cc1ccc(-c2nc3cc(NC(=O)c4ccc([N+](=O)[O-])o4)ccc3o2)cc1Br | 74000 | 6920 | 6490
CCOC(=O)c1c(NC(=O)COc2ccccc2[N+](=O)[O-])sc(C(C)=O)c1C | > 10000 | > 1250 | > 853
O=C(NCC1CCCO1)c1ccc([N+](=O)[O-])cc1Cl (stereo not given) | > 10000 | > 1120 | > 877
CCc1ccc(C(=O)N(C)CCCNc2ccnc3cc(Cl)ccc23)cc1 | 2860 | 337 | 250
CCCCN1C(=O)/C(=C/N(C(=O)CC)c2ccccc2)SC1=S | > 10000 | > 699 | > 853
CN(C)CCNC(=O)c1ccc(-c2cccc3c2sc2ccccc23)nc1N1CCN(CCO)CC1 | 5320 | 388 | 452
Cc1cc(-c2cncnc2C2CCN(C(=O)c3cc(C(C)C)n[nH]3)CC2)on1 | > 10000 | > 1250 | > 849
CC1CN(C)C(C)CC1=NOC(=O)c1ccc(Cl)c(Cl)c1 (stereo not given) | > 10000 | > 1250 | > 848
COc1ccccc1N1CCN(c2ccc(NC(=O)c3ccc(Br)cc3)cc2C(=O)NCCCN(C)C)CC1 | 1340 | > 1250 | 117
CC(C)(C)CC(=O)N1CCC[C@@H]2CN(C(=O)CCOc3ccccc3)CC[C@@H]21 | > 10000 | > 1250 | > 874
COc1ccc(CNC2CCN(CCN3CCCCC3)C(c3ccc(OCc4ccccc4)cc3)C2)cc1OC (stereo not given) | 5060 | 662 | 447
CC(NCCN1CCNCC1)c1cc(C(C)(C)C)cc2c1CCC2(C)C (stereo not given) | 6720 | 598 | 586
O=C(O)CCCCCNc1ncnc2sc3c(c12)CCCC3 | > 10000 | > 1250 | 869
COc1cc(Br)c(CCNC(=O)Cc2cc(OC)c(OC)cc2Br)cc1OC | > 100000 | > 8770 | > 8680
COc1ccc(/C=C/c2ccc3ccccc3[n+]2C)cc1OC | > 10000 | 872 | 867
CC1=NOC(=O)/C1=C/c1ccc(-c2ccc([N+](=O)[O-])cc2)o1 | > 10000 | > 1250 | > 865
CCNc1ncnc2sc(C(=O)NCc3csc(C)n3)c(C)c12 | > 100000 | > 12500 | > 8590
CC(C)CNc1nc(NCCCN2CCCCC2C)ncc1C(=O)NCc1ccccc1 (stereo not given) | > 10000 | 236 | 859
O=C1Nc2ccccc2C1=Nc1ccccc1NS(=O)(=O)c1ccc2ccccc2c1 | > 10000 | > 1250 | > 857
CC(c1nc2ccc(Cl)cc2c(=O)n1C)N1CCN(C(=O)C(C)(C)C)CC1 (stereo not given) | > 10000 | 1470 | 860

SMILES | CC50 [1] [nM] | EC50 (Plasmodium falciparum [2]) [nM] | EC50 (Plasmodium falciparum [3]) [nM]
O=C(NCC1CCCO1)c1cc(S(=O)(=O)N2CCCCC2)c[nH]1 (stereo not given) | > 10000 | > 1250 | > 860
CCOC(=O)c1ccc(N2CCN(c3ccc(F)cc3)CC2)c(NC(=O)Nc2ccccc2)c1 | > 10000 | > 1250 | > 860
O=[N+]([O-])c1ccc(Nc2nc(NN=Cc3ccccc3I)nc(Nc3ccccc3)n2)cc1 | 32800 | 846 | 2820
Fc1ccc(CNc2ccnc3cc(Cl)ccc23)cc1 | > 10000 | 808 | > 881
COc1cc(C)c(CCNCCCCCCNCCc2cc(OC)c(OC)cc2C)cc1OC | > 10000 | 230 | > 880
CC[C@H]1CN2CC[C@H]1C[C@H]2[C@H](O)c1ccnc2ccccc12 | > 7910 | 183 | 696
CC(C)N1CCc2c(sc(NC(=O)C(C)(C)C)c2C(N)=O)C1 | 71200 | 1040 | 6260
CN(C)CCNc1ccc2ncc(-c3ccsc3)n2n1 | > 10000 | > 1250 | > 846
CC1(C)C2C[C@@H](COC(=O)NC(=O)c3ccccc3)[C@]3(C)[C@H](C21)C3(Cl)Cl (stereo not given in full) | > 11200 | 1140 | 951
Cc1ccc(Nc2nc(N)c3ccccc3n2)cc1Cl | 8920 | 527 | 755
CCOc1ccc(-c2noc(-c3ccncc3)n2)cc1OCC | > 10000 | > 1250 | > 847
COc1ccc2nc3cc(Cl)ccc3c(Nc3ccc(O)cc3)c2c1 | > 10000 | 809 | 845
COc1ccccc1NC(=O)CSc1nc2cccnc2n1-c1ccccc1OC | > 10000 | 833 | 848
CCCCCN(C(=O)COCc1ccccc1)C(CC)c1nc2ccccc2c(=O)n1-c1cccc(Cl)c1 (stereo not given) | > 10000 | 411 | 847
CC(C)c1ccc(-c2cncc(N[C@@H](C)c3ccccc3)n2)cc1 | > 10000 | > 558 | 846
O=C1C(=Cc2cc([N+](=O)[O-])cc(Br)c2O)C(=O)c2ccccc21 | > 10000 | > 1250 | > 877
COc1cc(NC(C)CCCN(Cc2ccc(Cl)cc2)C(=O)C(C)C)c2ncccc2c1 (stereo not given) | 13200 | 1680 | 1120
CN1CCN(C(=S)NC(=O)/C=C/c2ccc(F)cc2)CC1 | > 10000 | > 1250 | > 874
COC(=O)c1c(-c2ccccc2Cl)csc1N | > 10000 | > 1250 | > 854
CC1C(Br)C(=O)C(Br)C(C)C12CCCC2 (stereo not given) | > 10000 | > 1250 | > 871
CC(=NNc1nc2ccccc2s1)c1ccc([N+](=O)[O-])cc1 | > 10000 | > 965 | > 848
C=CCn1c2cc(C)sc2c2cnn(CC(=O)N3CC(C)CC(C)C3)c(=O)c21 (stereo not given) | > 10000 | > 1250 | > 857
Cc1nn(C)cc1-c1nc2cnccn2c1NCC1CCCO1 (stereo not given) | > 10000 | > 1250 | > 876
COc1ccccc1CCNCc1cc(-c2ccc(F)cc2)ccc1O | > 10000 | 1050 | 869
CCC1=NN2C(=N)/C(=C/c3cn(CCOc4ccccc4C(C)CC)c4ccccc34)C(=O)N=C2S1 (stereo not given) | > 10000 | > 1250 | > 865
COc1cc(NC(C)CCCN(Cc2ccccc2OC)C(=O)c2cccc(Br)c2)c2ncccc2c1 (stereo not given) | > 6430 | > 948 | 563
CCN(CC)c1nc(S)nc(NC(C)(C)C)n1 | > 100000 | > 12500 | > 8810
